Laboratory results published in the supplement of paper PMC11061612.

What was measured:
[1] = tested on: NCI-H2141 (Small Cell Lung Carcinoma); assay: combination Emax (second highest fraction inhibited in the dose matrix, 72 h); higher = more inhibition; extreme values may be limits of the assay
Summary of the method: (§1)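 Bliss excess equals the observed combination effect minus the expected value EA + EB − EA·EB, where EA and EB are the effects of each agent alone. Combination Emax is the second-highest inhibition within the matrix. Inhibition was scaled from CellTiter-Glo 2.0 luminescence, with 0 set by vehicle wells and 1 by blank wells, after 72 hours of two-drug dosing of cells plated in 1536-well plates.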

[2] = tested on: SISO (Cervical Carcinoma); assay: as above
Summary of the method: as §1

[3] = tested on: NCI-H1693 (Lung Adenocarcinoma); assay: as above
Summary of the method: as §1

[4] = tested on: CCK-81 (Colorectal Carcinoma); assay: Bliss excess, mean over the matrix (fraction); higher = more synergy
Summary of the method: as §1

[5] = tested on: NCI-H2066 (Squamous Cell Lung Carcinoma); assay: as above
Summary of the method: as §1

[6] = tested on: ECC10 (Gastric Carcinoma); assay: as above
Summary of the method: as §1

[7] = tested on: NCI-H64 (Small Cell Lung Carcinoma); assay: as above
Summary of the method: as §1

[8] = tested on: VCaP (Prostate Carcinoma); assay: as above
Summary of the method: as §1

[9] = tested on: COR-L311 (Small Cell Lung Carcinoma); assay: as above
Summary of the method: as §1

[10] = tested on: TT2609-C02 (Thyroid Gland Carcinoma); assay: as above
Summary of the method: as §1

[11] = tested on: NCI-H1666 (Lung Adenocarcinoma); assay: as above
Summary of the method: as §1

[12] = tested on: NY (Osteosarcoma); assay: as above
Summary of the method: as §1

[13] = tested on: Hs-445 (Non-Cancerous); assay: as above
Summary of the method: as §1

[14] = tested on: COLO-320-HSR (Colorectal Carcinoma); assay: as above
Summary of the method: as §1

[15] = tested on: CAS-1 (Glioblastoma); assay: as above
Summary of the method: as §1

[16] = tested on: PANC-10-05 (Pancreatic Carcinoma); assay: as above
Summary of the method: as §1

[17] = tested on: A3-KAW (B-Cell Non-Hodgkin's Lymphoma); assay: as above
Summary of the method: as §1

[18] = tested on: A549 (Lung Adenocarcinoma); assay: as above
Summary of the method: as §1

[19] = tested on: TT (Thyroid Gland Carcinoma); assay: as above
Summary of the method: as §1

[20] = tested on: NCI-H1693 (Lung Adenocarcinoma); assay: as above
Summary of the method: as §1

SMILES	combination Emax [1]	combination Emax [2]	combination Emax [3]	Bliss excess [4]	Bliss excess [5]	Bliss excess [6]	Bliss excess [7]	Bliss excess [8]	Bliss excess [9]	Bliss excess [10]	Bliss excess [11]	Bliss excess [12]	Bliss excess [13]	Bliss excess [14]	Bliss excess [15]	Bliss excess [16]	Bliss excess [17]	Bliss excess [18]	Bliss excess [19]	Bliss excess [20]
C[C@@H](c1ccc2nccn2c1)n1nnc2ncc(-c3cnn(C)c3)nc21 [Savolitinib] + Cc1c2c(nn1C)CSCc1cc(n(C)n1)CSc1cc(c3ccccc3c1)OCCCc1c(C(=O)O)n(C)c3c-2c(Cl)ccc13 [AZD5991] (first compound max 1 µM, 7x7, partner max 1 µM)	0.234	0.0507	0.108	-0.0402	-0.0455	0.0229	-0.021	-0.0422	-0.0246	-0.0947	-0.0577	-0.0288	-0.0407	-0.0464	-0.0584	-0.0994	-0.0499	-0.0279	-0.0102	-0.0684
Cn1cnc2c(F)c(Nc3ccc(Br)cc3Cl)c(C(=O)NOCCO)cc21 [Selumetinib] + C=CCn1c(=O)c2cnc(Nc3ccc(N4CCN(C)CC4)cc3)nc2n1-c1cccc(C(C)(C)O)n1 [AZD1775] (first compound max 10 µM, partner max 1 µM)	0.547	0.539	0.428	-0.0167	-0.0776	-0.0058	-0.005	-0.063	-0.0518	-0.0169	-0.0542	-0.071	-0.133	-0.0657	-0.0342	-0.0898	-0.0575	-0.0741	-0.0599	-0.0092
Cn1cnc2c(F)c(Nc3ccc(Br)cc3Cl)c(C(=O)NOCCO)cc21 [Selumetinib] + CC(C)n1c(=O)n(C)c2cnc3cc(F)c(-c4ccc(OCCCN5CCCCC5)nc4)cc3c21 [AZD1390] (first compound max 10 µM, 7x7, partner max 0.3 µM)	0.0858	0.0869	0.204	0.0157	-0.061	0.0038	-0.0279	-0.0387	-0.0541	-0.0387	0.0058	-0.0149	-0.0425	-0.0182	-0.053	-0.0783	0.0678	-0.0534	-0.0364	-0.0814
Cn1cnc2c(F)c(Nc3ccc(Br)cc3Cl)c(C(=O)NOCCO)cc21 [Selumetinib] + CCN(CCO)CCCOc1ccc2c(Nc3cc(CC(=O)Nc4cccc(F)c4)[nH]n3)ncnc2c1 [AZD2811] (first compound max 10 µM, 7x7, partner max 1 µM)	0.167	0.338	0.286	0.0101	-0.0322	-0.094	0.0312	-0.0336	-0.0546	0.0055	-0.0506	-0.0102	0.013	-0.0398	-0.0349	-0.0367	0.165	0.0248	-0.0472	-0.0196
Cn1cnc2c(F)c(Nc3ccc(Br)cc3Cl)c(C(=O)NOCCO)cc21 [Selumetinib] + C[C@@H]1COCCN1C2=NC(=NC(=C2)C3(CC3)[S@](=N)(=O)C)C4=C5C=CNC5=NC=C4 [AZD6738] (first compound max 10 µM, 7x7, partner max 10 µM)	0.409	0.43	0.364	0.0233	0.004	0.0198	-0.0464	-0.0602	-0.056	0.0773	-0.0124	0.0613	-0.0473	-0.0678	-0.0163	-0.07	0.061	-0.0173	-0.0154	-0.0017
CC(=O)Nc1cccc(-n2c(=O)n(C3CC3)c(=O)c3c(Nc4ccc(I)cc4F)n(C)c(=O)c(C)c32)c1 [Trametinib] + Cc1nc(-c2cn3c(n2)-c2ccc(-c4cnn(C(C)(C)C(N)=O)c4)cc2OCC3)n(C(C)C)n1 [Taselisib] (first compound max 1 µM, 7x7, partner max 10 µM)	0.317	0.447	0.469	0.209	0.0386	0.24	0.0284	0.0444	0.0018	0.0909	0.0857	0.0847	0.119	0.0338	0.0153	0.0968	0.173	0.0568	0.0288	0.0507
CC1(C)CCC(CN2CCN(c3ccc(C(=O)NS(=O)(=O)c4ccc(NCC5CCOCC5)c([N+](=O)[O-])c4)c(Oc4cnc5[nH]ccc5c4)c3)CC2)=C(c2ccc(Cl)cc2)C1 [Venetoclax] + C1CN(CCC1(C(=O)N[C@@H](CCO)C2=CC=C(C=C2)Cl)N)C3=NC=NC4=C3C=CN4 [Capivasertib] (first compound max 1 µM, 7x7, partner max 3 µM)	0.249	0.106	0.197	-0.039	-0.0142	-0.0202	0.0083	-0.026	-0.0022	-0.0391	-0.0541	0.0029	0.0344	-0.0006	-0.0653	-0.0656	-0.0468	-0.059	-0.103	-0.0333
CC1(C)CCC(CN2CCN(c3ccc(C(=O)NS(=O)(=O)c4ccc(NCC5CCOCC5)c([N+](=O)[O-])c4)c(Oc4cnc5[nH]ccc5c4)c3)CC2)=C(c2ccc(Cl)cc2)C1 [Venetoclax] + C=CCn1c(=O)c2cnc(Nc3ccc(N4CCN(C)CC4)cc3)nc2n1-c1cccc(C(C)(C)O)n1 [AZD1775] (first compound max 1 µM, partner max 1 µM)	0.792	0.694	0.308	-0.066	-0.0598	0.0951	0.0168	-0.0013	-0.104	-0.0696	-0.0228	0.0137	0.127	0.0635	0.0375	-0.0488	-0.0298	-0.0366	0.0252	-0.0281
CC1(C)CCC(CN2CCN(c3ccc(C(=O)NS(=O)(=O)c4ccc(NCC5CCOCC5)c([N+](=O)[O-])c4)c(Oc4cnc5[nH]ccc5c4)c3)CC2)=C(c2ccc(Cl)cc2)C1 [Venetoclax] + CCN(CCO)CCCOc1ccc2c(Nc3cc(CC(=O)Nc4cccc(F)c4)[nH]n3)ncnc2c1 [AZD2811] (first compound max 1 µM, 7x7, partner max 1 µM)	0.482	0.231	0.182	-0.0122	-0.0442	0.0068	0.173	0.0436	0.0261	-0.0276	0.0171	-0.0304	0.0894	0.0052	-0.0052	-0.0454	-0.0238	-0.0668	-0.0834	0.0169
CC1(C)CCC(CN2CCN(c3ccc(C(=O)NS(=O)(=O)c4ccc(NCC5CCOCC5)c([N+](=O)[O-])c4)c(Oc4cnc5[nH]ccc5c4)c3)CC2)=C(c2ccc(Cl)cc2)C1 [Venetoclax] + CN(C)CCCOc1ccc(-c2ccc3ncc4c(c3c2)n(C2CCOCC2)c(=O)n4C)cn1 [AZD0156] (first compound max 1 µM, 7x7, partner max 1 µM)	0.148	0.148	0.221	-0.0054	-0.0439	0.0243	-0.0149	0.032	0.0654	-0.0351	-0.0085	-0.0939	-0.035	0.0114	-0.0046	-0.079	-0.0485	-0.0586	-0.13	-0.0123
CC1(C)CCC(CN2CCN(c3ccc(C(=O)NS(=O)(=O)c4ccc(NCC5CCOCC5)c([N+](=O)[O-])c4)c(Oc4cnc5[nH]ccc5c4)c3)CC2)=C(c2ccc(Cl)cc2)C1 [Venetoclax] + COc1cc(Nc2ncc3c(n2)-c2ccc(Cl)cc2C(c2c(F)cccc2OC)=NC3)ccc1C(=O)O [Alisertib] (first compound max 1 µM, 7x7, partner max 10 µM)	0.518	0.543	0.344	0.0196	0.0077	-0.0281	0.194	0.0574	0.0981	-0.0069	-0.0713	-0.0009	0.374	0.0248	-0.0341	-0.0602	-0.156	-0.0696	-0.113	-0.0862
CC1(C)CCC(CN2CCN(c3ccc(C(=O)NS(=O)(=O)c4ccc(NCC5CCOCC5)c([N+](=O)[O-])c4)c(Oc4cnc5[nH]ccc5c4)c3)CC2)=C(c2ccc(Cl)cc2)C1 [Venetoclax] + C[C@@H]1COCCN1C2=NC(=NC(=C2)C3(CC3)[S@](=N)(=O)C)C4=C5C=CNC5=NC=C4 [AZD6738] (first compound max 1 µM, 7x7, partner max 10 µM)	0.637	0.532	0.372	-0.0197	-0.0098	-0.0132	-0.0054	-0.0174	-0.0291	-0.0293	-0.0405	-0.0597	0.0577	-0.0076	-0.0068	-0.113	0.008	-0.0465	-0.0387	-0.0147
CC1(C)CCC(CN2CCN(c3ccc(C(=O)NS(=O)(=O)c4ccc(NCC5CCOCC5)c([N+](=O)[O-])c4)c(Oc4cnc5[nH]ccc5c4)c3)CC2)=C(c2ccc(Cl)cc2)C1 [Venetoclax] + C[C@@H](Nc1cc(F)cc(F)c1)c1cc(C(=O)N(C)C)cc2c(=O)cc(N3CCOCC3)oc12 [AZD8186] (first compound max 1 µM, 7x7, partner max 3 µM)	0.361	0.11	0.129	-0.0287	-0.0182	0.0539	0.0288	-0.0242	0.0257	-0.0251	-0.0705	0.0226	0.0888	-0.0052	-0.04	-0.0542	-0.0047	-0.0073	-0.0467	-0.034
